In ChEMBL document CHEMBL5038586, “Thiazolidinedione "Magic Bullets" Simultaneously Targeting PPARγ and HDACs: Design, Synthesis, and Investigations of their In Vitro and In Vivo Antitumor Effects” (J Med Chem, 2021):
Activity calls are given as the source filed them. The calls are words filed in the database; no cut-off is given here.

Columns and labels:
[1] = target: T1, Histone deacetylase 8 (Homo sapiens, UniProt Q9BY41); experiment: Inhibition of recombinant human HDAC8 using Boc-Lys (trifluoroacetyl)-AMC as substrate preincubated for 1 hr followed by substrate addition and measured after 1 hr by micro plate reader analysis
T1 sequence (Q9BY41 whole entry): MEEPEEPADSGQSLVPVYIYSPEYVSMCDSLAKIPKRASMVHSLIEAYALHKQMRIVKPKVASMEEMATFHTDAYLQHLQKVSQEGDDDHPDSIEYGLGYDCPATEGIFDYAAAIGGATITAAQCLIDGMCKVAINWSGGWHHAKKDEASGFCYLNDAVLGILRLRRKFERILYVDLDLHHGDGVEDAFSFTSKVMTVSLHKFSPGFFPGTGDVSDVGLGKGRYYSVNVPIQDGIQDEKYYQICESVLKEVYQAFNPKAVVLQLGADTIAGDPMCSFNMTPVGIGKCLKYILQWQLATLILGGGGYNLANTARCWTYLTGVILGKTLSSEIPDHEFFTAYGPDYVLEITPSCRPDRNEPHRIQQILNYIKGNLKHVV

[2] = target: T2, Histone deacetylase 4 (Homo sapiens, UniProt P56524); experiment: Inhibition of recombinant human HDAC4 using Boc-Lys (trifluoroacetyl)-AMC as substrate preincubated for 1 hr followed by substrate addition and measured after 1 hr by micro plate reader analysis
T2 sequence (P56524 whole entry): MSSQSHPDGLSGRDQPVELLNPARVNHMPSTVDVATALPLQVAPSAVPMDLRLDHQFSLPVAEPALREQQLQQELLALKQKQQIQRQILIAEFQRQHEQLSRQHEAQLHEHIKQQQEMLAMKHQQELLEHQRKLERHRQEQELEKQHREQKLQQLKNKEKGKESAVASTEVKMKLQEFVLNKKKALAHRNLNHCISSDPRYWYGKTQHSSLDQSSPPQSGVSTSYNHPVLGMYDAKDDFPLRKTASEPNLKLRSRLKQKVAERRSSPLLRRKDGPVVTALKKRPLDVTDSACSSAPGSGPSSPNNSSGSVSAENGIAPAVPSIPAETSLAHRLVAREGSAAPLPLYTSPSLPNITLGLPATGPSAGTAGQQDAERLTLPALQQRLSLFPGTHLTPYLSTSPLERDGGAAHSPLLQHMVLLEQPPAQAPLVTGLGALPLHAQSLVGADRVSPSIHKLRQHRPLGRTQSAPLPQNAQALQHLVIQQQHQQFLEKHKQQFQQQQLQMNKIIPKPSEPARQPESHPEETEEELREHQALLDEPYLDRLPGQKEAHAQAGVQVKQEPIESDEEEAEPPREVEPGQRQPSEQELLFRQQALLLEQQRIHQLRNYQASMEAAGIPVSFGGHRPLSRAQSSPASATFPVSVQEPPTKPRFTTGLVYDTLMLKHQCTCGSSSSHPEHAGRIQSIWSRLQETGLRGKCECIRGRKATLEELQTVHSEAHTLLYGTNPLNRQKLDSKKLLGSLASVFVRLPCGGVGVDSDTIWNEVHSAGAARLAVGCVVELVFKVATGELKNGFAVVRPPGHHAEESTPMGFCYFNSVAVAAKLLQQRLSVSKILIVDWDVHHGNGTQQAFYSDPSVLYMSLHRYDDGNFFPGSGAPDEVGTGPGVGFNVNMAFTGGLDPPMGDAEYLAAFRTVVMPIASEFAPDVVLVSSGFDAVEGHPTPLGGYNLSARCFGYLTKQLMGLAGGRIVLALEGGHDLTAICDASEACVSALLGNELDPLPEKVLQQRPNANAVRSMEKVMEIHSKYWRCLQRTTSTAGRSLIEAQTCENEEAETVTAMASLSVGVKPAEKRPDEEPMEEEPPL

[3] = target: T3, Histone deacetylase 8 (Homo sapiens) (UniProt Q9BY41); experiment: Inhibition of recombinant human HDAC8 using Boc-Lys (trifluoroacetyl)-AMC as substrate ay 35 uM preincubated for 1 hr followed by substrate addition and measured after 1 hr by micro plate reader analysis
T3 sequence (whole entry): T1 sequence (Q9BY41 whole entry)

[4] = target: T2, Histone deacetylase 4; experiment: Inhibition of recombinant human HDAC4 using Boc-Lys (trifluoroacetyl)-AMC as substrate ay 35 uM preincubated for 1 hr followed by substrate addition and measured after 1 hr by micro plate reader analysis
[5] = test system: Ramos; experiment: Cytotoxicity against human Ramos cells assessed as cell death incubated for 20 hrs measured by DNS assay; assay type: functional
[6] = Toxicity in SCID mouse xenografted with human CEM cells assessed as effect on body weight at 50 mg/kg, ip; assay type: organism-based, CCRF-CEM; details: in vivo
[7] = test system: SH-SY5Y; experiment: Cytotoxicity against human SH-SY5Y cells assessed as cell death incubated for 20 hrs measured by DNS assay; assay type: functional
[8] = Toxicity in SCID mouse xenografted with human CEM cells assessed as behavioral changes at 50 mg/kg, ip; assay type: organism-based, CCRF-CEM; details: in vivo
[9] = test system: HS27; experiment: Cytotoxicity against human HS-27 cells assessed as cell death incubated for 20 hrs measured by DNS assay; assay type: toxicity, cell-based; details: hs27, 20 h
[10] = test system: HeLa; experiment: Cytotoxicity against human HeLa cells assessed as cell death incubated for 20 hrs measured by DNS assay; assay type: functional
[11] = test system: CCRF-CEM; experiment: Cytotoxicity against human CEM cells assessed as cell death incubated for 20 hrs measured by DNS assay; assay type: functional
[12] = Selectivity index, ratio of CC50 for human HS-27 cells to CC50 for human Ramos cells; assay type: functional
[13] = test system: MDA-MB-231; experiment: Cytotoxicity against human MDA-MB-231 cells assessed as cell death incubated at 10 uM for 20 hrs measured by DNS assay; assay type: functional
[14] = test system: SH-SY5Y; experiment: Cytotoxicity against human SH-SY5Y cells assessed as cell death incubated at 10 uM for 20 hrs measured by DNS assay; assay type: functional
[15] = test system: HeLa; experiment: Cytotoxicity against human HeLa cells assessed as cell death incubated at 10 uM for 20 hrs measured by DNS assay; assay type: functional
[16] = test system: CCRF-CEM; experiment: Cytotoxicity against human CEM cells assessed as cell death incubated at 10 uM for 20 hrs measured by DNS assay; assay type: functional
[17] = test system: Ramos; experiment: Cytotoxicity against human Ramos cells assessed as cell death incubated at 10 uM for 20 hrs measured by DNS assay; assay type: functional
[18] = test system: HL-60; experiment: Cytotoxicity against human HL-60 cells assessed as cell death incubated at 10 uM for 20 hrs measured by DNS assay; assay type: functional
[19] = test system: CCRF-CEM; experiment: Cytotoxicity against human CEM cells assessed as cell death incubated at 50 uM for 20 hrs measured by DNS assay; assay type: functional
[20] = Toxicity in SCID mouse xenografted with human CEM cells assessed as effect on body weight at 20 mg/kg, ip; assay type: organism-based, CCRF-CEM; details: in vivo
[21] = test system: MDA-MB-231; experiment: Cytotoxicity against human MDA-MB-231 cells assessed as cell death incubated for 20 hrs measured by DNS assay; assay type: functional
[22] = Selectivity index, ratio of CC50 for human HS-27 cells to CC50 for human SH-SY5Y cells; assay type: functional
[23] = Selectivity index, ratio of CC50 for human HS-27 cells to CC50 for human HeLa cells; assay type: functional
[24] = Selectivity index, ratio of CC50 for human HS-27 cells to CC50 for human MDA-MB-231 cells; assay type: functional
[25] = Selectivity index, ratio of CC50 for human HS-27 cells to CC50 for human CEM cells; assay type: functional
[26] = test system: HS27; experiment: Cytotoxicity against human HS-27 cells assessed as cell death incubated at 10 uM for 20 hrs measured by DNS assay; assay type: toxicity, cell-based; details: hs27, 20 h

Compound | IC50 [1] [µM] | IC50 [2] [µM] | inhibition [3] | inhibition [4] | other results
O=C(COc1ccc2cc(/C=C3/SC(=O)NC3=O)ccc2c1)Nc1ccc(F)cc1 | 6.6 | 1.6 | Active | Active | 
O=C(COc1ccc2ccccc2c1/C=C1\SC(=O)NC1=O)Nc1ccc([N+](=O)[O-])cc1 | 2.3 | 15 |  |  | 
Cc1cccc(NC(=O)COc2ccc3cc(/C=C4/SC(=O)NC4=O)ccc3c2)n1 | 7.5 | 1.1 | Active | Active | 
O=C(COc1ccc2cc(/C=C3/SC(=O)NC3=O)ccc2c1)Nc1ccccn1 | > 50 | 17 | Active | Active | 
Cc1ccc(NC(=O)COc2ccc3cc(/C=C4/SC(=O)NC4=O)ccc3c2)cc1 | 9 | 1.7 |  |  | CC50 [5]: 7 µM; Activity [6]: Non-Toxic; CC50 [7]: 49.5 µM; Activity [8]: Non-Toxic; CC50 [9]: 40.2 µM; CC50 [10]: 10.3 µM; CC50 [11]: 2.8 µM
O=C(COc1ccc2cc(/C=C3/SC(=O)NC3=O)ccc2c1)Nc1cccc(F)n1 | 7.2 | 0.84 | Active | Active | 
O=C(COc1ccc2cc(/C=C3/SC(=O)NC3=O)ccc2c1)Nc1cccc(C(F)(F)F)c1 | > 50 | 2.5 | Active | Active | Selectivity Index [12]: >10; CC50 [5]: 6.2 µM; Activity [13]: 5.96%; Activity [14]: 0%; Activity [15]: 39.09%; Activity [16]: 25.87%; Activity [17]: >40%; Activity [18]: 19.55%
CCc1ccc(CCOc2ccc(CC3SC(=O)NC3=O)cc2)nc1 (configuration not stated) [PIOGLITAZONE] |  |  |  |  | Activity [19]: 0%; Activity [15]: 0%
COc1cccc2c1C(=O)c1c(O)c3c(c(O)c1C2=O)C[C@@](O)(C(=O)CO)C[C@@H]3O[C@H]1C[C@H](N)[C@H](O)[C@H](C)O1 [DOXORUBICIN] |  |  |  |  | Activity [20]: Non-Toxic
O=C(COc1ccc2cc(/C=C3/SC(=O)NC3=O)ccc2c1)Nc1ccccc1 | 4.5 | 2.1 | Active | Active | 
O=C(COc1ccc2cc(/C=C3/SC(=O)NC3=O)ccc2c1)Nc1ccc(Br)cc1 | 16 | 2.9 |  |  | CC50 [10]: 10.1 µM
Cc1ccc(NC(=O)COc2ccc3cc(/C=C4/SC(=O)NC4=O)ccc3c2)cc1Cl | > 50 | 1.1 | Active | Active | 
O=C(COc1ccc2cc(/C=C3/SC(=O)NC3=O)ccc2c1)Nc1c(F)cc(F)cc1Br | > 50 | 1.1 |  |  | CC50 [5]: 9.6 µM; CC50 [21]: 9.8 µM; CC50 [7]: 21.8 µM; CC50 [9]: 39.9 µM; CC50 [10]: 10.4 µM; CC50 [11]: 9.6 µM
O=C(COc1ccc2cc(/C=C3/SC(=O)NC3=O)ccc2c1)Nc1cc(Cl)cc(C(F)(F)F)c1 | > 50 | 4 | Active | Active | 
Cc1cccc2sc(NC(=O)COc3ccc4cc(/C=C5/SC(=O)NC5=O)ccc4c3)nc12 | 5.8 | 1.2 | Active | Active | 
O=C(CCCCCCC(=O)Nc1ccccc1)NO [VORINOSTAT] |  |  |  |  | CC50 [10]: 2.8 µM; CC50 [11]: 2.5 µM
O=C(CN1C(=O)S/C(=C/c2ccccn2)C1=O)Nc1nc2ccccc2s1 | 9.3 |  |  |  | 
CCOc1ccc2nc(NC(=O)COc3ccc4cc(/C=C5/SC(=O)NC5=O)ccc4c3)sc2c1 | 17 | 3.6 | Active | Active | 
O=C(COc1ccc2cc(/C=C3/SC(=O)NC3=O)ccc2c1)Nc1ccc(Br)cc1F | > 50 | 1.9 |  |  | CC50 [7]: 16 µM; CC50 [9]: 57 µM; CC50 [11]: 40.9 µM
COc1ccc(NC(=O)COc2ccc3cc(/C=C4/SC(=O)NC4=O)ccc3c2)cc1 | > 50 | 4.7 | Active | Active | 
Cc1cc(NC(=O)COc2ccc3cc(/C=C4/SC(=O)NC4=O)ccc3c2)no1 | > 50 | 1.7 | Active | Active | 
O=C(COc1ccc2cc(/C=C3/SC(=O)NC3=O)ccc2c1)Nc1nc2ccccc2s1 | 2.7 | 0.42 | Active | Active | 
O=C(COc1ccc2cc(/C=C3/SC(=O)NC3=O)ccc2c1)Nc1ccc(F)cc1F | > 50 | 3.9 | Active | Active | 
O=C(COc1ccc2cc(/C=C3/SC(=O)NC3=O)ccc2c1)Nc1ccccc1Oc1ccccc1 | > 50 | 5.2 | Active | Active | Selectivity Index [12]: >10; CC50 [5]: 10 µM; Selectivity Index [22]: >10; CC50 [21]: 10.3 µM; Selectivity Index [23]: >10; Activity [13]: >40%; Activity [14]: >40%; Selectivity Index [24]: >10; CC50 [7]: 52.3 µM; Activity [16]: 40.24%; CC50 [10]: 10.2 µM; Activity [17]: >40%; Activity [18]: 0%
COc1cccc(NC(=O)COc2ccc3cc(/C=C4/SC(=O)NC4=O)ccc3c2)c1 | 7.6 | 1.6 | Active | Active | Selectivity Index [12]: >10; CC50 [5]: 9.3 µM; Selectivity Index [25]: >10; CC50 [21]: 9.8 µM; Selectivity Index [23]: >10; Activity [26]: 24.69%; Activity [13]: >40%; Activity [14]: 0%; Selectivity Index [24]: >10; Activity [16]: >40%; CC50 [10]: 10.4 µM; Activity [17]: >40%; Activity [18]: 0%; CC50 [11]: 10.7 µM
O=C(COc1ccc2cc(/C=C3/SC(=O)NC3=O)ccc2c1)Nc1ccc(Br)c(Br)c1 | > 50 | 4.9 | Active | Active | 
Cc1cc(Br)ccc1NC(=O)COc1ccc2cc(/C=C3/SC(=O)NC3=O)ccc2c1 | 7.4 | 0.55 |  |  | CC50 [7]: 91.1 µM; CC50 [10]: 9.9 µM
O=C(COc1ccc2cc(/C=C3/SC(=O)NC3=O)ccc2c1)Nc1ccc(Cl)c(Cl)c1 | > 50 | 5.5 | Active | Active | 
O=C(COc1ccc2cc(/C=C3/SC(=O)NC3=O)ccc2c1)Nc1cccc(Cl)c1 | > 50 | 3.8 | Active | Active | Selectivity Index [12]: >10; CC50 [5]: 9.1 µM; Selectivity Index [25]: >10; Activity [26]: 22.56%; Activity [13]: 2.84%; Activity [14]: 10.79%; Activity [15]: 29.68%; Activity [16]: >40%; Activity [17]: >40%; Activity [18]: 27.58%; CC50 [11]: 10.6 µM
O=C(COc1ccc2cc(/C=C3/SC(=O)NC3=O)ccc2c1)Nc1ccc([N+](=O)[O-])cc1 | 4 | 1.7 |  |  | CC50 [21]: 55.8 µM
